From patent US8252829B2, “Aminopyrrolidinone derivatives and uses thereof” (Link Medicine Corporation, priority 2009, dated 2012) come the findings set out here.

pIC50, pKi: −log10 of the molar value.

For test [1], the target named is farnesyl transferase (FTase) (Homo sapiens, UniProt P49354+P49356). Nature of the test: In vitro farnesyl transferase assay (fluorescent dansyl-pentapeptide). It counts as biochemical. Conditions: dGCVLS 4 μM, FPP 5 μM, 25-50 nM FTase, 1% DMSO, room temperature. As for the experimental part: Compounds were analyzed for inhibition of farnesyl transferase (FTase) activity using an established fluorescent peptide-based assay (Pompliano et al 1992 J. Am. Chem. Soc. 114:7945; U.S. Pat. No. 5,525,479, issued Jun. 11, 1996; each of which is incorporated herein by reference). In summary, a dansyl-pentapeptide (dGCVLS) was incubated at 4 μM with 5 μM farnesyl pyrophosphate (FPP) and 25-50 nM FTase in 50 mM Tris-HCl/12 mM MgCl2/12 μM ZnCl2/6 mM DTT/0.2% octyl-D-β-glucopyranoside/pH 7.0 at room temperature while the increase in fluorescence of the peptide at Ex=340 nm, Em=485 nm upon farnesyl addition was monitored continuously by a spectrofluorometer. Test compounds were added to the reaction mixture and the final results were compared to negative control (with solvent only), to allow measurement of the degreee of inhibition at each concentration of compound tested. Serial dilution series of test compounds were used to allow measurement of the IC50s and calculation of the resultant Ki. The linear portion of the reaction progress curve thus created was measured to yield an initial rate (Vo); a plot of Vo versus inhibitor concentration was fit by non-linear regression analysis (GraphPad Prism software) to calculate the […] and the Ki. All reactions in the inhibitor experiments contain a final concentration of 1% DMSO.

Test [2] has as its system Farnesyl Transferase (Ras farnesylation) in COS-7 cells. Description: Cellular assay for farnesyl transferase activity (cytosolic Ras in COS-7 cells, Western blot). It counts as cell-based. Conditions: 24 hr treatment, cytosolic Ras/actin ratio, read-out: Cell IC50. From the text:
Ras is a small GTP binding protein whose farnesylation and condequent membrane association can be reduced by inhibition of farnesyl transferase (Appels et al., Oncologist 10:565-578, 2005; Basso et al., J. Lipid Res. 47:15-31, 2006; Tamanoi, Trends Biochem. Sci. 18:349-353, 1993; each of which is incorporated herein by reference). Treatment with certain farnesyl transferase inhibitors (FTIs) reduces the farnesylation and membrane association of Ras, leading to accumulation of Ras in the cytosol of the cells. An assay was developed to monitor FTase activity, based on the amount of Ras present in the cytosolic fraction of COS-7 cells after FTI treatment. On day 0, COS-7 cells were passaged into 6-well plates at a density of 4×10^5 cells/well. Beginning on day 1, cells were treated with test compounds (e.g. FTIs) in 0.2% DMSO for 24 hr. On day 2, cells were lysed by passage through a 25 gauge needle 10 times in 100 μl Buffer 1 (50 mM Tris, 140 mM NaCl, 2 mM EDTA, protease inhibitor cocktail, pH 7.4) and lysates were centrifuged at 16,000 g for 30 min to isolate the cytosolic fraction (supernatant). The cytosolic fraction was analyzed by Western blot using anti-Ras antibody and anti-actin antibody for loaning control.
Western Blotting: Following transfer of SDS gels onto NC membrane, all membranes were blocked with 5% non-fat milk in TBST (50 mM Tris-HCl pH7.4, 150 mM NaCl, 0.1% Tween 20), incubated with primary antibody overnight with 1% BSA in TBST, washed three times with TBST, and incubated with horseradish peroxidase-conjugated secondary antibody for 1 hour (Promega). Bound antibodies were detected using enhanced chemiluminascence (NEM). Results were quantified based on densitometric analysis of Ras signal normalized to actin signal (Ras/actin ratio). Dose response curves were generated for serial dilutions of test compounds, which were then used to measure an IC50 for the test compound by curve fitting with Prism or equivalent software product.

The test system of test [3] is isolated islets / INS1 cells. Description: Oxygen consumption, Seahorse XF24 bioenergetic assay. It counts as cell-based, mice. To be noted: 1 nM. Here is the method: Impaired mitochondrial function is shown by a decreased rate of oxygen consumption. For example, INS1 cells exposed to palmitate show a significant decrease in oxygen consumption rate, both under basal glucose and following stimulation with glucose. The effect of compound 28 at 1 nM on oxygen consumption was determined at 2.5 and 3.5 day incubation time points. Oxygen consumption in INS1 was measured using a Seahorse XF24 bioenergetic assay. Assays have been previously described in detail (See, Wu M, et al. Am J Physiol Cell Physiol 2007; 292:C125-36).
In one aspect, islet oxygen consumption was measured using the XF24 Islet Capture Microplate available from Seahorse Biosciences. An example of an assay to measure islet consumption is as follows:
Modified XF Assay Media (MA Media): Supplement XF DMEM assay media with 3 mM glucose and 1% FBS to run whole islets. (FBS is needed to prevent islets from becoming too adherent). Components/Formulation of Modified XF Assay Media: […]
The XF assay template is prepared via the Assay Wizard using the XF24 operation manual. The assay template is uploaded to the XF24 Analyzer before starting the assay. […]
Whole islets are prepared by standard laboratory procedure. […] The islets are counted under a dissecting microscope. […] The count of the islets is determined and the volume adjusted so that there are ˜70 islets for every 100 microliters of the islet suspension. […]

`N#Cc1ccc(Cn2cncc2CN[C@H]2CCN([C@@H]3CCCc4ccc(Cl)cc43)C2=O)cc1` [Compound 30] showed a pKi in test [1] of 9.92. In addition, the pIC50 in test [2] was 8.55.
Compound `N#Cc1ccc(Cn2cncc2CN[C@H]2CCN([C@@H]3CCOc4ccc(Cl)cc43)C2=O)cc1` [Compound 29] gave a pKi in test [1] of 10.68. The pIC50 in test [2] is 8.74.
Turning to `N#Cc1ccc(Cn2cncc2CN[C@H]2CCN([C@@H]3CCOc4ccc(F)cc43)C2=O)cc1` [Compound 28], the “increase in mitochondrial respiration (Oxygen Consumption Rate vs. time, % of base line)” value in test [3] (2.5 days incubation (FIG. 1)) came to 50%. Further, in test [3] (isolated islets (FIGS. 1 and 2)), the “increase in oxygen consumption” value came out at 50%. The compound also had a pKi in test [1] of 10.23. The negative logarithm of the IC50 (pIC50) in test [2] is 8.85.
With `N#Cc1ccc(Cn2cncc2CN[C@H]2CCN(C3CCOc4ccc(F)cc43)C2=O)cc1` (stereo partly shown) [Compound 70], in test [2], the pIC50 is 7.38.
In the case of `N#Cc1ccc(Cn2cncc2CN[C@@H]2CCN([C@@H]3CCOc4ccc(F)cc43)C2=O)cc1` [Compound 71], the pIC50 in test [2] was 8.60.
